Key:
Test in all cases: relative viability (nuclei count vs DMSO), 5 days (fraction); higher = more cells survive
[1] = compound: COc1cc([C@@H]2c3cc4c(cc3[C@@H](O[C@@H]3O[C@@H]5CO[C@@H](C)O[C@H]5[C@H](O)[C@H]3O)[C@H]3COC(=O)[C@H]23)OCO4)cc(OC)c1O [Etoposide] + CC(=O)Nc1cccc(-n2c(=O)n(C3CC3)c(=O)c3c(Nc4ccc(I)cc4F)n(C)c(=O)c(C)c32)c1 [Trametinib] (partner 0.02 µM)
In short: (§1)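 Five library-drug doses in √10 steps were combined with a fixed anchor-drug dose, or a single drug was given alone, by pin tool to lung cancer cell lines in 1536-well plates the day after seeding. Nuclei were stained and counted after 5 days. Relative viability is the nuclei count in treated wells over that in vehicle wells, taken as the median of duplicate plates.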

[2] = compound: CC1=C(N=C(N=C1N)[C@H](CC(=O)N)NC[C@@H](C(=O)N)N)C(=O)N[C@@H]([C@H](C2=CN=CN2)OC3C(C(C(C(O3)CO)O)O)OC4C(C(C(C(O4)CO)O)OC(=O)N)O)C(=O)N[C@H](C)[C@H]([C@H](C)C(=O)N[C@@H]([C@@H](C)O)C(=O)NCCC5=NC(=CS5)C6=NC(=CS6)C(=O)NCCC[S+](C)C)O [Bleomycin] + Nc1ncn([C@H]2C[C@H](O)[C@@H](CO)O2)c(=O)n1 [Decitabine] (partner 2 µM); conditions: main component drawn
In short: as §1

[3] = compound: CC1=C(N=C(N=C1N)[C@H](CC(=O)N)NC[C@@H](C(=O)N)N)C(=O)N[C@@H]([C@H](C2=CN=CN2)OC3C(C(C(C(O3)CO)O)O)OC4C(C(C(C(O4)CO)O)OC(=O)N)O)C(=O)N[C@H](C)[C@H]([C@H](C)C(=O)N[C@@H]([C@@H](C)O)C(=O)NCCC5=NC(=CS5)C6=NC(=CS6)C(=O)NCCC[S+](C)C)O [Bleomycin] + CS(=O)(=O)N1CCN(Cc2cc3nc(-c4cccc5[nH]ncc45)nc(N4CCOCC4)c3s2)CC1 [Pictilisib] (partner 1 µM); conditions: main component drawn
In short: as §1

[4] = compound: COc1cc([C@@H]2c3cc4c(cc3[C@@H](O[C@@H]3O[C@@H]5CO[C@@H](C)O[C@H]5[C@H](O)[C@H]3O)[C@H]3COC(=O)[C@H]23)OCO4)cc(OC)c1O [Etoposide] + C[C@@H](Oc1cc(-c2cnn(C3CCNCC3)c2)cnc1N)c1c(Cl)ccc(F)c1Cl [Crizotinib] (partner 1 µM)
In short: as §1

For UMC-11, the relative viability ([1]; first compound 0.01 µM) was 0.711, the relative viability ([1]; first compound 0.03162 µM) was 0.711 and the relative viability ([1]; first compound 0.1 µM) was 0.352. It also gave a relative viability ([1]; first compound 0.3162 µM) of 0.258, a relative viability ([1]; first compound 1 µM) of 0.292 and a relative viability ([2]; first compound 0.01 µM) of 0.493. It also gave a relative viability ([2]; first compound 0.03162 µM) of 0.509, a relative viability ([2]; first compound 0.1 µM) of 0.473 and a relative viability ([2]; first compound 0.3162 µM) of 0.528. It also gave a relative viability ([2]; first compound 1 µM) of 0.404, a relative viability ([3]; first compound 0.01 µM) of 0.842 and a relative viability ([3]; first compound 0.03162 µM) of 0.661. The relative viability ([3]; first compound 0.1 µM) was 0.827, the relative viability ([3]; first compound 0.3162 µM) was 0.66 and the relative viability ([3]; first compound 1 µM) was 0.577. The relative viability ([4]; first compound 0.01 µM) was 0.703, the relative viability ([4]; first compound 0.03162 µM) was 0.573 and the relative viability ([4]; first compound 0.3162 µM) was 0.241. The relative viability ([4]; first compound 1 µM) was 0.146.

Source: the supplement of paper PMC10307832
